Source: patent US20160015725A1, “METHODS OF CONTROLLING TUMOR BIOENERGETICS NETWORKS” (THE WISTAR INSTITUTE OF ANATOMY AND BIOLOGY, priority 2012, published 2016)

Assays:
Assay type in all cases: cell-based, human
[1] = system: multiple tumor cell types; test: ATP production in tumor cells (luciferin-luciferase)
Method: Intracellular ATP concentrations were measured by the luciferin—luciferase method using an ATP measuring kit (Biochain). The ATP concentration in each extract was measured with a microplate luminometer (Beckman Coulter) against standard ATP solutions used as reference. In some experiments, PC3 or LN229 cells were preincubated with sodium pyruvate for 7 h in the presence of vehicle or Gamitrinib before determination of ATP production.

[2] = system: LN229 cells; test: Glucose utilization; conditions: tumor cells
Method: Glucose concentrations in cell culture media were determined using a Glucose kit (Sigma-Aldrich). Briefly, 2×10^6 cells were seeded in 10 cm2 tissue culture dishes for 48 h, mixed with DMEM in the presence of Gamitrinib or 17-AAG (0-20 μM) for additional 4 h, and 200 μl aliquots of culture medium were incubated with 1 ml assay mixture, containing 1.5 mM NAD, 1 mM ATP, 1.0 U/ml Hexokinase, and 1.0 U/ml G6PDH. The glucose concentration under the various conditions was determined by measuring the amount of reduced NAD to NADH by G6PDH, and quantified spectrophotometrically at 340 nm wavelength. Extracellular lactate was measured by a colorometric assay kit (Abcam). Culture media from LN229 cells was replaced with DMEM containing vehicle (DMSO) or Gamitrinib (5 μM) for 5 h. Changes in lactate concentrations were measured by analysis of lactate-dependent conversion of NADP to NADPH in the presence of excess lactate dehydrogenase (LDH), and quantified by absorbance at 450 nm. All assays were performed at 25° C. under conditions of linear lactate-limited NADPH formation.

[3] = system: LN229 cells; test: ROS production, H2-DCFA labeling; conditions: cytotoxic or non-cytotoxic concentrations, various time intervals
[4] = system: AMP-activated kinase (AMPK); test: AMPK phosphorylation in tumor cells, Western blotting
[5] = system: LN229 cells; test: Cell viability by MTT; conditions: Gamitrinib combined with 2-DG vs each agent alone
Method: Various cell types were seeded in triplicate onto 96-well plates at 4×10^3 cells/well, treated with vehicle, Gamitrinib or 17-AAG (0-20 μM) for 12 h, and analyzed for changes in metabolic activity by an MTT assay. For determination of apoptosis, LN229 cells ([…]) were labeled for annexin V and propidium iodide (PI) (BD Biosciences), and analyzed by multiparametric flow cytometry (BD).

[6] = system: tumor cells; test: ER UPR markers (Western blotting, Xbp1 splicing, RT-qPCR)
[7] = system: V600E mutant BRAF melanoma cells; test: AMPK and autophagy signaling in mutant BRAF melanoma cells
Text: (§1) Human glioblastoma LN229, prostate adenocarcinoma PC3 or LNCaP cells, or normal NIH3T3 fibroblasts were obtained from the American Tissue Culture Collection (ATCC, Manassas, Va.), and maintained in culture according to the supplier's specifications. The following wild type (WT) BRAF N-Ras mutant melanoma cells WM852 and WM1366, and melanoma cells carrying a V600E activating mutation in the BRAF oncogene, 451Lu, Me11617 and WM983B were used in this study. WT or CypD knockout Mouse Embryonic Fibroblasts (MEFs, CypD−/−) were characterized earlier 40. In some experiments, CypD−/− MEFs were stably transfected with control plasmid, WT CypD or peptidyl prolyl isomerase (PPIase)-deficient H168Q CypD mutant cDNA, and analyzed for differential recruitment of HK-II to mitochondrial or cytosolic fractions.
(§2) For Western blotting, protein lysates were prepared from the different cell types in RIPA Buffer (150 mM NaCl, 1.0% Triton X-100, 0.5% sodium deoxycholate, 0.1% SDS, 50 mM Tris, pH 8.0) containing EDTA-free Protease Inhibitor Cocktail (Roche) and Phosphatase Inhibitor Cocktail 2 and 3 (Sigma Aldrich). Equal amounts of protein lysates were separated by SDS gel electrophoresis, transferred to PVDF membranes and incubated with primary antibodies of various specificities. Protein bands were detected by chemiluminescence.
(§3) Samples were imaged using a Leica TCS SP2 confocal microscope. For determination of autophagy, cells under the various conditions tested were harvested after 12 h, and analyzed with an antibody to […] (LC3) by Western blotting.

[8] = system: WT BRAF melanoma cells; test: AMPK and autophagy signaling in WT BRAF melanoma cells
Text: as §1, §2, §3

[9] = system: mutant BRAF melanoma cells; test: 3D organotypic spheroids, mutant BRAF; conditions: collagen-embedded, 72 h
Method: (§4) For analysis of tumor cell survival in 3D organotypic cultures, melanoma spheroids were prepared as previously described. Briefly, 50 μl aliquots of the various melanoma cell types (5×10^4 cells/ml) were seeded onto 96-well plates coated with 1.5% agar (Difco, Sparks, Md.) in PBS. Spheroids were allowed to form for 72 h and then embedded in 100 μl of bovine collagen type I (Organogenesis, Canton, Mass.). Spheroids were overlaid with 100 μl of Tu2% growth medium and treated with inhibitors for 72 hours. Quantification of live vs. dead cells under the various conditions tested was performed by staining the melanoma spheroids after 72 h of treatment with calcein-AM (live) and Topro-3 (dead) (Invitrogen) for 1 h (data not shown).

[10] = system: WT BRAF spheroids; test: 3D organotypic spheroids, WT BRAF; conditions: collagen-embedded, 72 h
Method: as §4

[11] = system: tumor cells; test: Mitochondrial permeability transition; conditions: non-cytotoxic concentrations
Method: (a) FIG. 18a is a bar graph showing percent viability of aliquots of the human tumor cell lines PC3, LNCaP, LN229, A549, or MCF-7 incubated with the indicated increasing concentrations of Gamitrinib for 5 hr and analyzed for changes in cell viability by direct cell counting. Mean±SD (n=2). (b) FIG. 18b are two parameter histogram dot plots of human glioblastoma LN229 cells left untreated (None) or incubated with 5 μM 17-AAG or Gamitrinib (Gam) for 5 hr and analyzed for changes in mitochondrial membrane potential by JC-1 staining and multiparametric flow cytometry. The mitochondrial uncoupler carbonyl cyanide 3-chlorophenylhydrazone (CCCP) was used as a control. The percentage of cells in each quadrant is indicated. FL1, green fluorescence; FL2, red fluorescence.

Question: Which results are given for `CO[C@H]1/C=C\C=C(/C)C(=O)NC2=CC(=O)C(NCCCCCC[P+](c3ccccc3)(c3ccccc3)c3ccccc3)=C(C[C@@H](C)C[C@H](OC)[C@H](O)[C@@H](C)/C=C(\C)[C@@H]1OC(N)=O)C2=O` [Gamitrinib]?
Answer: time to inhibition of ATP production ([1]; multiple tumor cell types): ≤ 5 h; ATP production ([1]; tumor cell types, non-cytotoxic concentrations, 5 h): concentration-dependent inhibition of ATP production; glucose utilization [2]: reduced glucose utilization; production of reactive oxygen species (ROS) [3]: had no effect on production of reactive oxygen species (ROS); AMPK and eIF2α phosphorylation, combined with 2-DG ([4]; Gamitrinib combined with 2-DG): maximally stimulated AMPK and eIF2α phosphorylation; AMPK phosphorylation, combination of metformin plus Gamitrinib ([4]; combination with metformin): did not further stimulate AMPK phosphorylation; AMPK activation compared with metformin ([4]; tumor cells): more prominent than that induced by metformin; AMPK activation remained sustained ([4]; tumor cells): ≥ 9 h; AMPK phosphorylation ([4]; tumor cells): concentration dependent phosphorylation of AMP-activated kinase (AMPK); onset of AMPK activation ([4]; tumor cells): ≤ 30 min; total AMPK levels ([4]; tumor cells): not affected; tumor cell killing, combined with 2-DG [5]: increased tumor cell killing; Grp78, CHOP or C/EBPβ expression, combined with 2-DG ([6]; Gamitrinib combined with 2-DG): translational suppression of Grp78, CHOP or C/EBPβ; mRNA expression of CHOP, C/EBPβ and Grp78 ([6]; quantitative PCR): time-dependent upregulation of ER UPR markers, CHOP, C/EBPβ and Grp78; C/EBPβ and CHOP expression ([6]; tumor cells): induction of transcription factors, CCAAT-enhancer binding protein (C/EBPβ) and C/EBP homology protein (CHOP); Grp78 expression ([6]; tumor cells): upregulation of the ER chaperone, Grp78; Xbp1 mRNA splicing ([6]; tumor cells): de novo mRNA splicing, i.e. activation, of its target, X-Box Protein-1, Xbp1; eIF2α phosphorylation ([6]; tumor cells): transient phosphorylation of PERK-regulated eIF2α; time to induction of ER UPR ([6]; tumor cells): ≤ 1 h; IRE-1 expression ([6]; within 1 h): increased expression of Inositol-Requiring-1 (IRE-1) kinase; autophagy ([7]; BRAF mutant cells): did not adaptively increase autophagy; AMPK activation ([7]; BRAF mutant melanoma cells): failed to activate AMPK; autophagy ([8]; WT BRAF cells): stimulated autophagy; AMPK phosphorylation ([8]; WT BRAF melanoma cells): induced AMPK phosphorylation; cell killing in 3D spheroids [9]: efficiently killed; concentrations that killed cells in 3D spheroids [9]: 1 to 3 µM; cell death in 3D spheroids [10]: resistant to cell death; mitochondrial permeability transition [11]: do not trigger mitochondrial permeability transition
